The values that follow are results of earlier work, collected in US9072718B2, “Burdock fruit extract containing arctigenin and method for producing same” (Kracie Pharma, Ltd., priority 2010, dated 2015).

The conditions of series [1]: stated without a test.
Series [2] concerns pancreas cancer cell line PANC-1. To be noted: PANC-1, undernutrition condition; Non-patent document 1.

Consider `COc1ccc(C[C@H]2COC(=O)[C@@H]2Cc2ccc(O[C@@H]3O[C@H](CO)[C@@H](O)[C@H](O)[C@H]3O)c(OC)c2)cc1OC` [arctiin], for which the solubility in water entry in series [1] is given as “hardly soluble in water”.
In the case of `COc1cc(C[C@H]2C(=O)OC[C@@H]2Cc2ccc(OC)c(OC)c2)ccc1O` [arctigenin], the “effect on viability of tumor cells in the undernutrition condition” value in series [2] is “effective”. For the same compound, in series [1], the solubility in water entry is reported as “hardly soluble in water”.
